Measured values reported in patent US11420958B2, “Aryl and heteroaryl substituted indole compounds” (BRISTOL-MYERS SQUIBB COMPANY, priority 2017, dated 2022).

Key:
Assay type in all cases: cell-based
human TLR8 = human TLR8 (Homo sapiens (Human), UniProt Q9NR97); experiment: TLR8 inhibition reporter assay (HEK-Blue, SEAP); conditions: HEK-Blue cells overexpressing human TLR8, R848 15.9 μM stimulation
Summary of the method: (§1)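 HEK-Blue cells expressing human TLR7, TLR8 or TLR9 with NF-κB/AP-1-driven SEAP reporter; compounds 0.05 nM–50 μM, 30 min pre-treatment at room temperature. Stimulated with gardiquimod 7.5 μM (TLR7), R848 15.9 μM (TLR8) or ODN2006 5 nM (TLR9), 22 h at 37 °C; % inhibition of SEAP signal relative to agonist+DMSO and known-inhibitor wells.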

human TLR7 = human TLR7 (Homo sapiens (Human), UniProt Q9NYK1); experiment: TLR7 inhibition reporter assay (HEK-Blue, SEAP); conditions: HEK-Blue cells overexpressing human TLR7, gardiquimod 7.5 μM stimulation
human TLR7, sequence (Q9NYK1 27-1049): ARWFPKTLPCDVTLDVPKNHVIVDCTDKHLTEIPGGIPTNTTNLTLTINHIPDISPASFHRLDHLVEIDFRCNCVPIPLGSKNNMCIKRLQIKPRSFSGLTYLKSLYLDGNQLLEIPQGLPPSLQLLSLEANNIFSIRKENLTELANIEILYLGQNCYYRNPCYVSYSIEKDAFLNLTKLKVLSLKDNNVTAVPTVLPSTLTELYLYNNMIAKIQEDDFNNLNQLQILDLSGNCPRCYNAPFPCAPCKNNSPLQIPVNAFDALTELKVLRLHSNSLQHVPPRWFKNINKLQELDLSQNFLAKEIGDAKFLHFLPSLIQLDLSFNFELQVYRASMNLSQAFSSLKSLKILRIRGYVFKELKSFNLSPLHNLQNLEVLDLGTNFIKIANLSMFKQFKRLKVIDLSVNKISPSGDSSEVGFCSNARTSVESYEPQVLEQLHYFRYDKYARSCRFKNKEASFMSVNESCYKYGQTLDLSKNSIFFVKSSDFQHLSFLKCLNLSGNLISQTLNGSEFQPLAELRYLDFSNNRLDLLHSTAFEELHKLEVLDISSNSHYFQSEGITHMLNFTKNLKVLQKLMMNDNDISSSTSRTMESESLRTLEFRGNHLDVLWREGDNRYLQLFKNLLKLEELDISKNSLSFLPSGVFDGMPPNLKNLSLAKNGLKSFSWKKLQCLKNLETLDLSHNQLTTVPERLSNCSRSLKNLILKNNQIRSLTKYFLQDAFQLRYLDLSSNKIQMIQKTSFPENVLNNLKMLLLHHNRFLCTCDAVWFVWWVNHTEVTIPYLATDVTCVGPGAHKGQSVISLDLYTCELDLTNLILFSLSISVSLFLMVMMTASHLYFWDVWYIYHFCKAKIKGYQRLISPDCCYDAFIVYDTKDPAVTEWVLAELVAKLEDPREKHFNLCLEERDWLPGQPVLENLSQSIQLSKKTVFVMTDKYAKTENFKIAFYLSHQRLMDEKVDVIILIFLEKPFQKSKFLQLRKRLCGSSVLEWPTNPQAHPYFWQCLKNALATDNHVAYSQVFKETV
Summary of the method: as §1

human TLR9 = human TLR9 (Homo sapiens (Human), UniProt Q9NR96); experiment: TLR9 inhibition reporter assay (HEK-Blue, SEAP); conditions: HEK-Blue cells overexpressing human TLR9, ODN2006 5 nM stimulation
human TLR9, sequence (Q9NR96 26-1032): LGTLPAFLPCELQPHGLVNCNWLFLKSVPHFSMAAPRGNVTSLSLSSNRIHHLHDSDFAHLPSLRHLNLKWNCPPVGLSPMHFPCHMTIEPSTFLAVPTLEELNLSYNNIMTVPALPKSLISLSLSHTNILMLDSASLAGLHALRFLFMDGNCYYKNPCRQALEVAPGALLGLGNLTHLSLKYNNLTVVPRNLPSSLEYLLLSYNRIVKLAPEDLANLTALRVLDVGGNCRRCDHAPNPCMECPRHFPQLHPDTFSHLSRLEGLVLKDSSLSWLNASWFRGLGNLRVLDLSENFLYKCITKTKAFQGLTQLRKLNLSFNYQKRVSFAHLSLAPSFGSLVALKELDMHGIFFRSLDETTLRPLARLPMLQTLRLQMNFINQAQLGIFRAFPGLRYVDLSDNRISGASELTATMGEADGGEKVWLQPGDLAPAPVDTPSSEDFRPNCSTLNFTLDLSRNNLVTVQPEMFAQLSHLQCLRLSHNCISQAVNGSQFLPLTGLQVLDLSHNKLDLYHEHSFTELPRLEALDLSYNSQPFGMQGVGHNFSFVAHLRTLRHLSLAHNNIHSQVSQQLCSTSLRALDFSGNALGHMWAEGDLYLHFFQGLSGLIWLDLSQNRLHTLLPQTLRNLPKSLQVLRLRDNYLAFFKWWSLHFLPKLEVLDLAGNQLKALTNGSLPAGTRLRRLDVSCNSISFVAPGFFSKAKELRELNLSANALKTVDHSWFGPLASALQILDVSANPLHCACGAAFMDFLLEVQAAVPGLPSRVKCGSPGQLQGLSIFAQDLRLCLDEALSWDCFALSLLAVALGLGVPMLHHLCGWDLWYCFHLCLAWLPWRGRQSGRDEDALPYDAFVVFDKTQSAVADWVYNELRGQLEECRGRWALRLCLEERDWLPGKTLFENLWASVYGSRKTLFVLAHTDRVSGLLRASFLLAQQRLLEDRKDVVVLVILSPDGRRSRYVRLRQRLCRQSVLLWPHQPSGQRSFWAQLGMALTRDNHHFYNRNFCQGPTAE
Summary of the method: as §1

human TLR8, sequence (Q9NR97 27-1041): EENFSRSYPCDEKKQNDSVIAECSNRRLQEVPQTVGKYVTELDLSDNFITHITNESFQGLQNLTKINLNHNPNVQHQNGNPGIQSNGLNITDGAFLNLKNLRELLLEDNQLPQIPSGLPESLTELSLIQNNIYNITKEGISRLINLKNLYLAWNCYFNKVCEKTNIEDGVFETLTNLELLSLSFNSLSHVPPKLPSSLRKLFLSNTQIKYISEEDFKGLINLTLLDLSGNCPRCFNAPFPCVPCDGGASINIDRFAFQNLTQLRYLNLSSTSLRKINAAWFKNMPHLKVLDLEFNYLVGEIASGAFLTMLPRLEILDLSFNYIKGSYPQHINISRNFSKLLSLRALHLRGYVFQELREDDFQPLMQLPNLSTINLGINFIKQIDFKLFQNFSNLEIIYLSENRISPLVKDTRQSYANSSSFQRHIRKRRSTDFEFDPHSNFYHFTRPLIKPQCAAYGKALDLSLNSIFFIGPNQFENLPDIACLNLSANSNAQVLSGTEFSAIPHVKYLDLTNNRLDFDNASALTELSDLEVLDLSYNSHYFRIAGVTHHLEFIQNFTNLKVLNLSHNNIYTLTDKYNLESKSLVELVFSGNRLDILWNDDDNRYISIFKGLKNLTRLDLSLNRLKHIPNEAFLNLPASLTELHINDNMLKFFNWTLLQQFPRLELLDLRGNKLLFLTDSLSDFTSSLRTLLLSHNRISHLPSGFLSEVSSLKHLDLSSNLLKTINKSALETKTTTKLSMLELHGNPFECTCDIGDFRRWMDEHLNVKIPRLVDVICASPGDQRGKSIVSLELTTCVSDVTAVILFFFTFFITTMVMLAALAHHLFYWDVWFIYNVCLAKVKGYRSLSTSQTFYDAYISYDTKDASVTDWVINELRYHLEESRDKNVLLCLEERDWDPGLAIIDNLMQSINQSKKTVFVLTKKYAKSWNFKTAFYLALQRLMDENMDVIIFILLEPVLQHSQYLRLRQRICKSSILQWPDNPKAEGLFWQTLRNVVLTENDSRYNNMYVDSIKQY

Row | Compound | IC50 (human TLR8) [µM] | IC50 (human TLR7) [µM] | IC50 (human TLR9) [µM]
1 | Cc1cc(-c2[nH]c3ccc(-c4ccc(Cl)nc4)cc3c2C(C)C)ccn1 [Example 235, 5-(6-chloropyridin-3-yl)-3-isopropyl-2-(2-methylpyridin-4-yl)-1H-indole] | 0.301 | 0.667 | > 50
2 | CCOCCNCc1nnc(-c2ccc3[nH]c(-c4ccc(OC)c(OC)c4)c(C(C)C)c3c2)o1 [Example 111, N-((5-(2-(3,4-dimethoxyphenyl)-3-isopropyl-1H-indol-5-yl)-1,3,4-oxadiazol-2-yl)methyl)-2-ethoxyethan-1-amine] | 0.266 | 0.157 | > 50
3 | COc1ccc(-c2[nH]c3ccc(-c4nnc(C5CNC5)o4)cc3c2C(C)C)cc1OC [Example 53, 2-(azetidin-3-yl)-5-(2-(3,4-dimethoxyphenyl)-3-isopropyl-1H-indol-5-yl)-1,3,4-oxadiazole] | 0.078 | 0.381 | 3.01
4 | COc1ccc(-c2[nH]c3ccc(-c4ccc(NCCN5CCOCC5)cc4)cc3c2C(C)C)cc1OC [Example 401, 4-(2-(3,4-dimethoxyphenyl)-3-isopropyl-1H-indol-5-yl)-N-(2-morpholinoethyl)aniline] | 0.077 | 0.541 | 43.3
5 | CC(C)c1c(-c2ccnc(N)c2)[nH]c2ccc(-c3nnc(C(=O)N(C)C)o3)cc12 [Example 166, 5-(2-(2-aminopyridin-4-yl)-3-isopropyl-H-indol-5-yl)-N,N-dimethyl-1,3,4-oxadiazole-2-carboxamide] | 0.047 | 0.284 | 29.5
6 | COc1ccc(-c2[nH]c3ccc(-c4cccc(C(=O)N5CCN(CC(=O)NC(C)C)CC5)c4)cc3c2CC(F)(F)F)cc1OC [Example 30, 2-(4-(3-(2-(3,4-dimethoxyphenyl)-3-(2,2,2-trifluoroethyl)-1H-indol-5-yl)benzoyl)piperazin-1-yl)-N-isopropylacetamide] | 0.165 | 1.99 | 14.3
7 | COc1ccc(-c2[nH]c3ccc(-c4cccc(N5CCNCC5)c4)cc3c2C(C)C)cc1OC [Example 411, 2-(3,4-dimethoxyphenyl)-3-isopropyl-5-(3-(piperazin-1-yl)phenyl)-1H-indole] | 0.096 | 0.604 | 8.43
8 | COc1ccc(-c2[nH]c3ccc(-c4ccc(-c5cccc(CN6CCN(C)CC6)c5)cc4)cc3c2C(C)C)cc1OC [Example 373, 2-(3,4-dimethoxyphenyl)-3-isopropyl-5-(3′-((4-methylpiperazin-1-yl)methyl)-[1,1′-biphenyl]-4-yl)-1H-indole] | 20.1 | 1.86 | 4.36
9 | COc1ccc(-c2[nH]c3ccc(-c4ccc5c(c4)CCNC5)cc3c2C(C)C)cc1OC [Example 136, 6-(2-(3,4-dimethoxyphenyl)-3-isopropyl-1H-indol-5-yl)-1,2,3,4-tetrahydroisoquinoline] | 0.038 | 0.057 | 6.88
10 | COc1ccc(-c2[nH]c3ccc(-c4ccc(CCCN5CCOCC5)cc4)cc3c2C(C)C)cc1OC [Example 398, 4-(3-(4-(2-(3,4-dimethoxyphenyl)-3-isopropyl-1H-indol-5-yl)phenyl)propyl)morpholine] | 2.12 | 0.559 | 2.55

These reach a lower IC50 (human TLR8). Values come first.

Row | IC50 (human TLR8) [µM] | IC50 (human TLR7) [µM] | IC50 (human TLR9) [µM] | Compound
11 | 0.0074 | 0.56 | > 50 | CNC(=O)CN1CCCC(c2nnc(-c3ccc4[nH]c(-c5ccnc(C)c5)c(C(C)C)c4c3)[nH]2)C1 (stereo not drawn) [Example 175, 2-(3-(5-(3-isopropyl-2-(2-methylpyridin-4-yl)-1H-indol-5-yl)-4H-1,2,4-triazol-3-yl)piperidin-1-yl)-N-methylacetamide]
12 | 0.0068 | 0.049 | 1.22 | COc1ccc(-c2[nH]c3ccc(-c4ccc(N5CCNCC5)nc4)cc3c2C(C)C)cc1OC [Example 417, 2-(3,4-dimethoxyphenyl)-3-isopropyl-5-(6-(piperazin-1-yl)pyridin-3-yl)-1H-indole]
13 | 0.0037 | 0.045 | 24.1 | CC(C)c1c(-c2ccnc3[nH]ncc23)[nH]c2ccc(-c3ccnc4[nH]ncc34)cc12 [Example 177, 4,4′-(3-isopropyl-1H-indole-2,5-diyl)bis(1H-pyrazolo[3,4-b]pyridine)]
14 | 0.0016 | 0.0073 | 1.29 | Cc1cc(-c2[nH]c3ccc(-c4cnc(NC(=O)CN(C)C)cn4)cc3c2C(C)C)ccn1 [Example 365, 2-(dimethylamino)-N-(5-(3-isopropyl-2-(2-methylpyridin-4-yl)-1H-indol-5-yl)pyrazin-2-yl)acetamide]
15 | 0.0093 | 0.147 | 2.36 | CCOC(=O)N1CCC(NC(=O)c2coc(-c3ccc4[nH]c(-c5cc(C)nc(C)c5)c(C(C)C)c4c3)n2)CC1 [Example 283, ethyl 4-(2-(2-(2,6-dimethylpyridin-4-yl)-3-isopropyl-1H-indol-5-yl)oxazole-4-carboxamido)piperidine-1-carboxylate]
16 | 0.0067 | 0.07 | 4.1 | Cc1cc(-c2[nH]c3ccc(-c4nnc(C5CCN(C(C)C)CC5)[nH]4)cc3c2C(C)C)ccn1 [Example 187, 3-isopropyl-5-(5-(1-isopropylpiperidin-4-yl)-4H-1,2,4-triazol-3-yl)-2-(2-methylpyridin-4-yl)-1H-indole]
17 | 0.0096 | 0.169 | 3.71 | COc1ccc(-c2[nH]c3ccc(-c4ccc(NCC5CCN(C)C5)cc4)cc3c2C(C)C)cc1OC (stereo not drawn) [Example 386, 4-(2-(3,4-dimethoxyphenyl)-3-isopropyl-1H-indol-5-yl)-N-((1-methylpyrrolidin-3-yl)methyl)aniline]
18 | 0.0012 | 0.0026 | 0.438 | Cc1cc(-c2[nH]c3ccc(-c4cc5c(s4)CNCC5)cc3c2C(C)C)cc(C)n1 [Example 324, 2-(2-(2,6-dimethylpyridin-4-yl)-3-isopropyl-1H-indol-5-yl)-4,5,6,7-tetrahydrothieno[2,3-c]pyridine]
19 | 0.0082 | 0.032 | 1.26 | COc1ccc(-c2[nH]c3ccc(-c4nnc([C@@H]5CCCNC5)o4)cc3c2C(C)C)cc1OC [Example 55, (R)-2-(2-(3,4-dimethoxyphenyl)-3-isopropyl-1H-indol-5-yl)-5-(piperidin-3-yl)-1,3,4-oxadiazole]
20 | 0.019 | 0.306 | 2.18 | CCc1c(-c2ccc(OC)c(OC)c2)[nH]c2ccc(-c3noc(C4CCNCC4)n3)cc12 [Example 459, 3-(2-(3,4-dimethoxyphenyl)-3-ethyl-1H-indol-5-yl)-5-(piperidin-4-yl)-1,2,4-oxadiazole]
21 | 0.002 | 0.01 | 0.346 | CCN(CCN(C)C)C(=O)c1nnc(-c2ccc3[nH]c(-c4cc(C)nc(C)c4)c(C(C)C)c3c2)o1 [Example 300, N-(2-(dimethylamino)ethyl)-5-(2-(2,6-dimethylpyridin-4-yl)-3-isopropyl-1H-indol-5-yl)-N-ethyl-1,3,4-oxadiazole-2-carboxamide]
22 | 0.0055 | 0.046 | 1.08 | CNCCc1nnc(-c2ccc3[nH]c(-c4ccc5ncnn5c4)c(C(C)C)c3c2)o1 [Example 226, 2-(5-(2-([1,2,4]triazolo[1,5-a]pyridin-6-yl)-3-isopropyl-1H-indol-5-yl)-1,3,4-oxadiazol-2-yl)-N-methylethan-1-amine]
